The structures appear in SMILES notation.

In one assay the target is T1, CYP2C9 (Homo sapiens, UniProt P11712).
T1 construct: Human liver microsome (20 mg protein/mL, 5 μL, Xenotech LLC, purchased from Lenexa KS); tissue Xenotech LLC; host or cells: human liver microsome
T1 sequence (P11712 whole entry): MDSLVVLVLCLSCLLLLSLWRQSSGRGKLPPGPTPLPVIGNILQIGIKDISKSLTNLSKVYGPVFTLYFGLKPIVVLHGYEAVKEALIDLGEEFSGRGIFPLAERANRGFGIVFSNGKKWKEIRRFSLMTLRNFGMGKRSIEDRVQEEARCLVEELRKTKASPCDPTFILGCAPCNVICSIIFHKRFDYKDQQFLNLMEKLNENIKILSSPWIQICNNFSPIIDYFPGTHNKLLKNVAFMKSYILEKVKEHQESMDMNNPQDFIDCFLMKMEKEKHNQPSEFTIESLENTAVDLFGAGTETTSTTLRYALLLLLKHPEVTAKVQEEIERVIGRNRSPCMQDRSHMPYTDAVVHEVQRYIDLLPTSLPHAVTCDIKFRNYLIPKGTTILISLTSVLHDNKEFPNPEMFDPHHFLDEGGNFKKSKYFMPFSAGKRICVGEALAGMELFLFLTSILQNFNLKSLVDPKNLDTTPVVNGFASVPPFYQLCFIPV
Nature of the assay: CYP inhibitory test using human liver microsome. It is filed as in vitro ADME. As to conditions: model substrate diclofenac, 37° C. 10 min, read-out: CYP2C9 inhibition IC50. As for the experimental part: Human liver microsome (20 mg protein/mL, 5 μL, Xenotech LLC, purchased from Lenexa KS) was suspended in 100 mM potassium phosphate buffer (70 μL, pH 7.4), mixed with a solution (0.5 μL) of the Example compound dissolved in DMSO and preincubated at 37° C. for 5 min. NADPH producing system coenzyme solution (β-nicotinamide adenine dinucleotide phosphate: 5.2 mM, D-glucose-6-phosphate: 13.2 mM, magnesium chloride: 13.2 mM, glucose-6-phosphate dehydrogenase: 1.8 U/mL) 25 μL, and a model substrate (CYP3A4: midazolam 1 mM, CYP2D6: bufuralol 1 mM, CYP2C9: diclofenac 2 mM) 0.5 μL dissolved in DMSO were added to start the reaction. After incubation at 37° C. for 10 min., acetonitrile (200 μL) containing an internal standard substance (propranolol 1 μM) was added and the mixture was centrifuged (room temperature, 3000 rpm, 20 min). The amount of the metabolite produced from each model substrate in the supernatant was measured by high performance liquid chromatography/mass spectrometry (LC/MS/MS) and each CYP enzyme activity was determined. The concentration showing 50% inhibition (IC50) was calculated relative to the enzyme activity without addition of Example compound (DMSO 0.5 μL added) as 100%.
Turning to `O=C(c1cc(Cl)c(O)c(Cl)c1)N1CC[S+]([O-])c2ccccc21` (stereo not shown) [Example 9, (3,5-dichloro-4-hydroxyphenyl)-(1-oxo-2,3-dihydro-1H-1λ^4-benzo[1,4]thiazin-4-yl)-methanone], the IC50 was 39 µM. In the case of `Nc1c(Cl)cc(C(=O)N2CCOc3ccccc32)cc1Cl` [Example 28, (4-amino-3,5-dichlorophenyl)-(2,3-dihydrobenzo[1,4]oxazin-4-yl)-methanone], the IC50 amounted to 24 µM. With `Nc1ccc2c(c1)OCCN2C(=O)c1cc(Cl)c(O)c(Cl)c1` [Example 71, (7-amino-2,3-dihydrobenzo[1,4]oxazin-4-yl)-(3,5-dichloro-4-hydroxyphenyl)-methanone], the IC50 amounted to 15 µM. Same read-out and setting: the value for `CS(=O)(=O)Nc1ccc2c(c1)OCCN2C(=O)c1cc(Cl)c(O)c(Cl)c1` [Example 72, N-[4-(3,5-dichloro-4-hydroxybenzoyl)-3,4-dihydro-2H-benzo[1,4]oxazin-7-yl]-methanesulfonamide] was 13 µM. On the same count and under the same terms, for `CC(=O)N1CCN(C(=O)c2cc(Cl)c(O)c(Cl)c2)c2ccccc21` [Example 73, 1-[4-(3,5-dichloro-4-hydroxybenzoyl)-3,4-dihydro-2H-quinoxalin-1-yl]-ethanone] the value was over 50 µM; for `CN1CCN(C(=O)c2cc(Cl)c(O)c(Cl)c2)c2ccccc21` [Example 74, (3,5-dichloro-4-hydroxyphenyl)-(4-methyl-3,4-dihydro-2H-quinoxalin-1-yl)-methanone], 33 µM.

Turning to `O=C(c1ccc(O)c([N+](=O)[O-])c1)N1CCOc2ccccc21` [Example 75, (2,3-dihydrobenzo[1,4]oxazin-4-yl)-(4-hydroxy-3-nitrophenyl)-methanone], the IC50 was over 50 µM.

Regarding `CC1Cc2ccccc2N1C(=O)c1cc(Cl)c(O)c(Cl)c1` (stereo not shown) [Example 76, (3,5-dichloro-4-hydroxyphenyl)-(2-methyl-2,3-dihydroindol-1-yl)-methanone], the IC50 came out at 28 µM.

Regarding `O=C(c1cc(Cl)c(O)c(Cl)c1)N1CCc2ccccc21` [Example 77, (3,5-dichloro-4-hydroxyphenyl)-(2,3-dihydroindol-1-yl)-methanone], the IC50 was 18 µM. The same measure, in the same setting: for `Nc1ccc2c(c1)CCN2C(=O)c1cc(Cl)c(O)c(Cl)c1` [Example 78, (5-amino-2,3-dihydroindol-1-yl)-(3,5-dichloro-4-hydroxyphenyl)-methanone] the value was 18 µM. On to `O=C(c1cc(Br)c(O)c(Br)c1)N1CCOc2ccc(F)cc21` [Example 79, (3,5-dibromo-4-hydroxyphenyl)-(6-fluoro-2,3-dihydrobenzo[1,4]oxazin-4-yl)-methanone], for which the IC50 was 13 µM. Same read-out and setting: the value for `O=C(c1cc(Br)c(O)c(Br)c1)N1CCOc2ccc3ccccc3c21` [Example 80, (3,5-dibromo-4-hydroxyphenyl)-(2,3-dihydronaphtho[2,1-b][1,4]oxazin-1-yl)-methanone] was 5 µM; that for `Cc1ccc2c(c1)N(C(=O)c1cc(Br)c(O)c(Br)c1)CCO2` [Example 81, (3,5-dibromo-4-hydroxyphenyl)-(6-methyl-2,3-dihydrobenzo[1,4]oxazin-4-yl)-methanone] was 13 µM. Consider `O=C(c1cc(Br)c(O)c(Br)c1)N1CCOc2ccc(Cl)cc21` [Example 82, (6-chloro-2,3-dihydrobenzo[1,4]oxazin-4-yl)-(3,5-dibromo-4-hydroxyphenyl)-methanone], for which the IC50 is 11 µM. `CS(=O)(=O)N1CCN(C(=O)c2cc(Cl)c(O)c(Cl)c2)c2ccccc21` [Example 83, (3,5-dichloro-4-hydroxyphenyl)-(4-methanesulfonyl-3,4-dihydro-2H-quinoxalin-1-yl)-methanone]: the IC50 is over 50 µM. With `CCS(=O)(=O)c1ccc2c(c1)N(C(=O)c1cc(Cl)c(O)c(Cl)c1)CCO2` [Example 84, (3,5-dichloro-4-hydroxyphenyl)-(6-ethanesulfonyl-2,3-dihydrobenzo[1,4]oxazin-4-yl)-methanone], the IC50 came to 15 µM. On the same count and under the same terms, for `O=C(c1cc(Cl)c(O)c(Cl)c1)N1CCOc2ccc(C(F)(F)F)cc21` [Example 85, (3,5-dichloro-4-hydroxyphenyl)-(6-trifluoromethyl-2,3-dihydrobenzo[1,4]oxazin-4-yl)-methanone] the value was 19 µM. As for `COc1c(Cl)cc(C(=O)N2CCOc3ccccc32)cc1Cl` [Example 86, (3,5-dichloro-4-methoxyphenyl)-(2,3-dihydrobenzo[1,4]oxazin-4-yl)-methanone], the IC50 was over 50 µM.

In the case of `CC(=O)Oc1c(Cl)cc(C(=O)N2CCOc3ccccc32)cc1Cl` [Example 87, 2,6-dichloro-4-(2,3-dihydrobenzo[1,4]oxazine-4-carbonyl)-phenyl acetate], the IC50 was determined as 31 µM.

Regarding `O=C(c1ccc(O)cc1)N1CCOc2ccccc21` [Example 88, (2,3-dihydrobenzo[1,4]oxazin-4-yl)-(4-hydroxyphenyl)-methanone], the IC50 was over 50 µM. Consider `O=C(c1cc(Cl)c(O)c(Cl)c1)N1CCOc2cccc(O)c21` [Example 89, (3,5-dichloro-4-hydroxyphenyl)-(5-hydroxy-2,3-dihydrobenzo[1,4]oxazin-4-yl)-methanone], for which the IC50 turned out to be 11 µM. The same measure, in the same setting: for `O=C(c1cc(Cl)c(O)c(Cl)c1)N1CCOc2c(O)cccc21` [Example 90, (3,5-dichloro-4-hydroxyphenyl)-(8-hydroxy-2,3-dihydrobenzo[1,4]oxazin-4-yl)-methanone] the value was 21 µM; for `CCOC(=O)COc1c(Cl)cc(C(=O)N2CCOc3ccccc32)cc1Cl` [Example 91, ethyl [2,6-dichloro-4-(2,3-dihydrobenzo[1,4]oxazine-4-carbonyl)phenoxy]acetate], over 50 µM; for `O=C(O)COc1c(Cl)cc(C(=O)N2CCOc3ccccc32)cc1Cl` [Example 92, [2,6-dichloro-4-(2,3-dihydrobenzo[1,4]oxazine-4-carbonyl)phenoxy]acetic acid], over 50 µM. `O=C(c1cc(Cl)c(O)c(Cl)c1)N1CCCOc2ccccc21` [Example 95, (3,5-dichloro-4-hydroxyphenyl)-(7,8-dihydro-6H-5-oxa-9-azabenzocyclohepten-9-yl)-methanone]: the IC50 is over 50 µM.

The target in the next assay is T2, URAT1 (Homo sapiens, UniProt Q96S37).
T2 sequence (Q96S37 1-553): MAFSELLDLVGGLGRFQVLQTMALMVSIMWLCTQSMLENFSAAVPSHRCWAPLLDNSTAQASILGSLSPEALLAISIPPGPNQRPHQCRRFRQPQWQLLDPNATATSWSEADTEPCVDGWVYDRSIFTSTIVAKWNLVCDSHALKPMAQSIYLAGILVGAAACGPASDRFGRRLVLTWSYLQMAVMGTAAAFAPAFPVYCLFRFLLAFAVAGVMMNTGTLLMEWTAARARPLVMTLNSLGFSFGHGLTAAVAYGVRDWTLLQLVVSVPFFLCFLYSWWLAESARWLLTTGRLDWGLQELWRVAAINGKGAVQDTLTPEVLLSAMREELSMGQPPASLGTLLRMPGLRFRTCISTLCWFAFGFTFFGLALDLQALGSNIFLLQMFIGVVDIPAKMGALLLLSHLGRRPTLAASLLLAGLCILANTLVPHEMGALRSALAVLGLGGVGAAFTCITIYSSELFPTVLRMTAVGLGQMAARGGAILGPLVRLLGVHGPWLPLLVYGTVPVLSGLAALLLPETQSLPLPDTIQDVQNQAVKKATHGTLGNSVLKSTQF
Description: Uric acid transport inhibitory test using human URAT1-expressing cells. It is filed as cell-based. Set-up: Human URAT1 full length cDNA was subcloned to expression vector pcDNA3.1; expressed in transfected cells; host or cells: HEK293 cells (pcDNA3.1, geneticin-selected). The conditions noted are these: human URAT1 expressing HEK293 cells, 14C-labeled uric acid uptake 5 min, room temperature; read-out: hURAT1 (IC50, concentration necessary for inhibiting the uric acid transport rate by 50%). The source says: Human URAT1 full length cDNA was subcloned to expression vector pcDNA3.1 and human URAT1 gene was transfected into human embryonic kidney derived cell line (HEK293 cells) by liposome method using Lipofectamine2000. Simultaneously, HEK293 cells transfected with expression vector pcDNA3.1 alone (hereinafter mock cells) were also produced. HEK293 cells expressing human URAT1 gene or mock cells were selected with geneticin resistance as an index. The functional expression of human URAT1 gene was confirmed by a method similar to the following method, using transport of uric acid labeled with ^14C into the cells as an index.
Human URAT1 expressing HEK293 cells or mock cells were cultured in Dulbecco's modified Eagle's MEM medium (high glucose) containing 10% fetal bovine serum, 0.5 mg/mL geneticin sulfate, 100 units/mL penicillin and 100 μg/mL streptomycin under the conditions of 37° C. and 5% CO2 in an incubator. The cells were plated in a 96 well plate (poly-D-Lysine coated) at 1×10^5 cells/well and the following uric acid transport inhibitory test was performed 24 hr later. This test was performed at room temperature.
After the medium was removed by aspiration from each well, the cells were washed once with Hank's Balanced Salt Solution (HBSS) and preincubated with HBSS ([…]) for 5 min. HBSS was aspirated and an assay buffer (wherein NaCl in the above-mentioned HBSS had been substituted with Na-gluconate) containing various concentrations of the Example compound and a radioactive ligand (uric acid labeled with 14C; final concentration […]) was added to each well at […] and an uptake reaction was carried out for 5 min. After the reaction, the cells were washed twice with ice-cold HBSS ([…]), and Microscin ti TM 20 (PerkinElmer) was added at […]. The cells were lysed by stirring and the radioactivity of each well was measured in a liquid scintillation counter (TOP COUNT, Packard).
The uric acid transport rate (%) of the Example compound at each concentration was calculated relative to the radioactivity (difference in radioactivity between human URAT1 expressing HEK293 cells and mock cells without addition of Example compound (DMSO addition)) showing URAT1 specific uric acid transport as 100%, and the concentration (IC50) of the Example compound necessary for inhibiting the uric acid transport rate by 50% was determined. In Table-Table , “+++” means IC50 value of less than 100 nM, “++” means IC50 value of 100 nM to less than 1000 nM, and “+” means IC50 value of 1000 nM to less than 3000 nM.
As to `O=C(c1cc(Cl)c(O)c(Cl)c1)N1CC[S+]([O-])c2ccccc21` (stereo not shown) [Example 9, (3,5-dichloro-4-hydroxyphenyl)-(1-oxo-2,3-dihydro-1H-1λ^4-benzo[1,4]thiazin-4-yl)-methanone], the IC50 fell in the range of 1 to 3 µM.

For `Nc1c(Cl)cc(C(=O)N2CCOc3ccccc32)cc1Cl` [Example 28, (4-amino-3,5-dichlorophenyl)-(2,3-dihydrobenzo[1,4]oxazin-4-yl)-methanone], the IC50 was 0.1 to 1 µM. Consider `CC1Cc2ccccc2N1C(=O)c1cc(Cl)c(O)c(Cl)c1` (stereo not shown) [Example 76, (3,5-dichloro-4-hydroxyphenyl)-(2-methyl-2,3-dihydroindol-1-yl)-methanone], for which the IC50 was in the range of 0.1 to 1 µM.
